Earlier results, collected in US12728096B2, “Pharmaceutical composition comprising enzalutamide” (Synthon B.V., priority 2019, dated 2026).

What was measured:
[1] = pH 1 to 11

solubility in water [1]: practically insoluble
permeability (BCS): high permeability
solubility (BCS): low solubility
Structure (SMILES): CNC(=O)c1ccc(N2C(=S)N(c3ccc(C#N)c(C(F)(F)F)c3)C(=O)C2(C)C)cc1F [Enzalutamide, 4-[3-[4-cyano-3-(trifluoromethyl)phenyl]-5,5-dimethyl-4-oxo-2-sulfanylideneimidazolidin-1-yl]-2-fluoro-N-methylbenzamide]
